Values joined by “and” are separate entries in the source; they are usually repeats but may differ in a detail not shown here. Equal entries are not always repeated. Toxic doses and inconclusive results are not listed.
Tested on: P388 leukemia ip, CD2F1 mice, survival T/C
Test: NCI In Vivo Anticancer Drug Screen. Data for tumor model P388 Leukemia (intraperitoneal) in CD2F1 (CDF1) mice
Conditions: endpoint: median survival time, higher = longer survival
Procedure, shortened: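 Mice carrying the transplanted tumor received test compound or vehicle. Survival was recorded in each group, and the value is the treated-group measurement divided by that of the vehicle-treated control group.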

[1] = dose: 50.0 mg/kg/injection, schedule: Q01DX009 (ip), vehicle: saline
[2] = dose: 100.0 mg/kg/injection, schedule: Q01DX009 (ip), vehicle: saline
[3] = dose: 200.0 mg/kg/injection, schedule: Q01DX009 (ip), vehicle: saline
[4] = dose: 50.0 mg/kg/injection, schedule: Q01DX009 (ip), vehicle: saline with Tween-80
[5] = dose: 100.0 mg/kg/injection, schedule: Q01DX009 (ip), vehicle: saline with Tween-80
[6] = dose: 200.0 mg/kg/injection, schedule: Q01DX009 (ip), vehicle: saline with Tween-80
[7] = dose: 25.0 mg/kg/injection, schedule: Q01DX009 (ip), vehicle: saline
[8] = dose: 100.0 mg/kg/injection, schedule: Q01DX005 (ip), vehicle: saline
[9] = dose: 50.0 mg/kg/injection, schedule: Q01DX005 (ip), vehicle: Klucel (hydroxypropylcellulose) (HPC)
[10] = dose: 100.0 mg/kg/injection, schedule: Q01DX005 (ip), vehicle: Klucel (hydroxypropylcellulose) (HPC)
[11] = dose: 200.0 mg/kg/injection, schedule: Q01DX005 (ip), vehicle: Klucel (hydroxypropylcellulose) (HPC)
[12] = dose: 60.0 mg/kg/injection, schedule: Q01DX005 (ip), vehicle: saline with Tween-80
[13] = dose: 120.0 mg/kg/injection, schedule: Q01DX005 (ip), vehicle: saline with Tween-80
[14] = dose: 240.0 mg/kg/injection, schedule: Q01DX005 (ip), vehicle: saline with Tween-80
[15] = dose: 100.0 mg/kg/injection, schedule: Q01DX001 (ip), vehicle: saline with Tween-80
[16] = dose: 12.5 mg/kg/injection, schedule: Q01DX005 (ip), vehicle: saline with Tween-80
[17] = dose: 25.0 mg/kg/injection, schedule: Q01DX005 (ip), vehicle: saline with Tween-80
[18] = dose: 50.0 mg/kg/injection, schedule: Q01DX005 (ip), vehicle: saline with Tween-80
[19] = dose: 200.0 mg/kg/injection, schedule: Q01DX005 (ip), vehicle: saline with Tween-80

In the case of `COc1ccc(-c2nc(C)[nH]c(=O)c2Cc2c(O)ccc3ccccc23)cc1`, the T/C [1] is reported as 102 % of control, the T/C [2] is reported as 100 % of control and the T/C [3] is reported as 99 % of control.

In the case of `CCOC(=O)c1c(NC(=S)NC)sc(C)c1C`, the T/C [4] is reported as 106 % of control, the T/C [5] is reported as 89 % of control and the T/C [6] is reported as 106 % of control.

For `CCC(=O)C[N+]12CCN(CC1)CC2`, the T/C (dose: 25.0 mg/kg/injection, schedule: Q04DX002 (ip), vehicle: Klucel (hydroxypropylcellulose) (HPC)) was 105 % of control and the T/C (dose: 50.0 mg/kg/injection, schedule: Q04DX002 (ip), vehicle: Klucel (hydroxypropylcellulose) (HPC)) was 104 % of control.

For `S=P(N1CC1)(N1CC1)N1CC1.[Cl-].[Cl-].[NH2-].[NH2-].[Pt+4]`, the T/C (dose: 0.78 mg/kg/injection, schedule: Q01DX009 (ip), vehicle: saline) was 104 % of control, the T/C (dose: 1.56 mg/kg/injection, schedule: Q01DX009 (ip), vehicle: saline) was 113 % of control and 101 % of control and the T/C (dose: 6.25 mg/kg/injection, schedule: Q01DX009 (ip), vehicle: saline) was 178 % of control and 150 % of control and 166 % of control. The T/C [7] was 88 % of control.

With `CC(=O)OC1(c2ccccc2)CCN(C)CC1C(=O)c1ccccc1` (stereo unspecified) the T/C (dose: 50.0 mg/kg/injection, schedule: Q01DX005 (ip), vehicle: saline) was 109 % of control and the T/C [8] was 116 % of control.

`COC(=O)CCCCCCCCCCCCCCCCCCCCCCCCCCCCCCCCC(=O)OC` was tested, and the T/C (dose: 25.0 mg/kg/injection, schedule: Q01DX001 (ip), vehicle: Klucel (hydroxypropylcellulose) (HPC)) was 88 % of control, the T/C (dose: 50.0 mg/kg/injection, schedule: Q01DX001 (ip), vehicle: Klucel (hydroxypropylcellulose) (HPC)) was 88 % of control and the T/C (dose: 100.0 mg/kg/injection, schedule: Q01DX001 (ip), vehicle: Klucel (hydroxypropylcellulose) (HPC)) was 87 % of control.

For `CN(CCC(CCC(=O)O)(C(=O)O)c1ccccc1)Cc1ccccc1` (stereo unspecified), the T/C [9] was 92 % of control, the T/C [10] was 100 % of control and the T/C [11] was 98 % of control.

With `O=N[O-].O=N[O-].O=N[O-].[Co+3].[NH-]CC[N-]CC[NH-]` the T/C (dose: 12.5 mg/kg/injection, schedule: Q01DX009 (ip), vehicle: saline with Tween-80) was 95 % of control, the T/C (dose: 25.0 mg/kg/injection, schedule: Q01DX009 (ip), vehicle: saline with Tween-80) was 104 % of control and the T/C [4] was 114 % of control.

`N#CCSCC#N` was tested, and the T/C [12] was 100 % of control, the T/C [13] was 100 % of control and the T/C [14] was 104 % of control.

With `O=C1OC(C2OC(=O)C(=O)C2C(=O)c2ccc(Cl)cc2)C(C(=O)c2ccc(Cl)cc2)C1=O` (stereo unspecified) the T/C (dose: 60.0 mg/kg/injection, schedule: Q01DX005 (ip), vehicle: saline + Tween-80 + alcohol) was 95 % of control, the T/C (dose: 120.0 mg/kg/injection, schedule: Q01DX005 (ip), vehicle: saline + Tween-80 + alcohol) was 92 % of control and the T/C (dose: 240.0 mg/kg/injection, schedule: Q01DX005 (ip), vehicle: saline + Tween-80 + alcohol) was 94 % of control.

For `O=[N+]([O-])/C=C/c1cc(Br)c(O)c(Br)c1`, the T/C [1] was 96 % of control, the T/C [2] was 115 % of control and the T/C [3] was 96 % of control.

In the case of `O=C(c1ccccc1)N1CC2CCC1CN2C(=O)c1ccccc1`, the T/C (dose: 12.5 mg/kg/injection, schedule: Q01DX009 (ip), vehicle: other) is reported as 105 % of control, the T/C (dose: 25.0 mg/kg/injection, schedule: Q01DX009 (ip), vehicle: other) is reported as 105 % of control and the T/C (dose: 50.0 mg/kg/injection, schedule: Q01DX009 (ip), vehicle: other) is reported as 100 % of control. The T/C (dose: 100.0 mg/kg/injection, schedule: Q01DX009 (ip), vehicle: other) was 100 % of control and the T/C (dose: 200.0 mg/kg/injection, schedule: Q01DX009 (ip), vehicle: other) was 105 % of control.

In the case of `CCOC(=O)CCC1=C(C)c2cc3[n-]c(cc4nc(cc5[n-]c(cc1n2)c(CCC(=O)OCC)c5C)C=C4C)cc3C.[Cu+2]`, the T/C [9] is reported as 101 % of control, the T/C [10] is reported as 97 % of control and the T/C [11] is reported as 100 % of control.

For `CCOC(=O)CCCCCNc1nc(Cl)nc(Cl)n1`, the T/C [4] was 98 % of control, the T/C [5] was 103 % of control and the T/C [6] was 87 % of control.

With `Cc1cccc(Nc2c3ccccc3nc3ccccc23)c1` the T/C (dose: 25.0 mg/kg/injection, schedule: Q01DX001 (ip), vehicle: saline with Tween-80) was 95 % of control, the T/C (dose: 50.0 mg/kg/injection, schedule: Q01DX001 (ip), vehicle: saline with Tween-80) was 100 % of control and the T/C [15] was 95 % of control.

`Cc1cccc(Oc2cnc(=O)[nH]c2)c1` was tested, and the T/C [4] was 100 % of control, the T/C [5] was 93 % of control and the T/C [6] was 99 % of control.

For `CSCCCNC(=O)c1csc(-c2csc(CCNC(=O)[C@@H](NSc3ccccc3[N+](=O)[O-])[C@@H](C)O)n2)n1`, the T/C (dose: 6.25 mg/kg/injection, schedule: Q01DX005 (ip), vehicle: saline with Tween-80) was 100 % of control, the T/C [16] was 104 % of control and the T/C [17] was 95 % of control. For the same molecule, the T/C [18] was 87 % of control and the T/C [19] was 87 % of control.

`O=C(O)C(=O)O.O=C(O)C(=O)O.O=C(O)C(=O)O.[Ru]` was tested, and the T/C (dose: 12.5 mg/kg/injection, schedule: Q04DX003 (ip), vehicle: water) was 110 % of control and 87 % of control.

For `CC(C)(CO)NC(=O)c1ccc(C(C)(C)C)cc1Br`, the T/C [15] was 99 % of control, the T/C (dose: 200.0 mg/kg/injection, schedule: Q01DX001 (ip), vehicle: saline with Tween-80) was 99 % of control and the T/C (dose: 400.0 mg/kg/injection, schedule: Q01DX001 (ip), vehicle: saline with Tween-80) was 100 % of control.

`O=C(Nc1ccc(F)cc1)N1c2ccccc2SC12CCCC2` was tested, and the T/C [4] was 91 % of control, the T/C [5] was 93 % of control and the T/C [6] was 93 % of control.

In the case of `Clc1cccc(C(Nc2nncs2)Nc2nncs2)c1Cl`, the T/C [12] is reported as 89 % of control, the T/C [13] is reported as 100 % of control and the T/C [14] is reported as 96 % of control.

With `CC(=O)n1c2ccccc2c2c(C)c3c[n+]([O-])ccc3c(C)c21` the T/C (dose: 12.5 mg/kg/injection, schedule: Q04DX002 (ip), vehicle: saline with Tween-80) was 100 % of control, the T/C (dose: 25.0 mg/kg/injection, schedule: Q04DX002 (ip), vehicle: saline with Tween-80) was 110 % of control and the T/C (dose: 50.0 mg/kg/injection, schedule: Q04DX002 (ip), vehicle: saline with Tween-80) was 122 % of control. For the same molecule, the T/C (dose: 200.0 mg/kg/injection, schedule: Q04DX002 (ip), vehicle: saline with Tween-80) was 93 % of control.

`CC1C[N+]2(CNC(=O)C3=C(O)C4(O)C(=O)C5=C(O)c6c(O)cccc6C(C)(O)C5CC4C(N(C)C)C3=O)CC(C)O[B-]2(c2ccccc2)O1` (stereo unspecified) was tested, and the T/C [9] was 110 % of control, the T/C [10] was 110 % of control and the T/C [11] was 100 % of control.

In the case of `O=c1oc2nc(-c3ccccc3)[nH]c(=O)c2c2c1CCCC2`, the T/C (dose: 15.0 mg/kg/injection, schedule: Q01DX005 (ip), vehicle: Klucel (hydroxypropylcellulose) (HPC)) is reported as 92 % of control and the T/C (dose: 30.0 mg/kg/injection, schedule: Q01DX005 (ip), vehicle: Klucel (hydroxypropylcellulose) (HPC)) is reported as 86 % of control.

`O=[N+]([O-])c1cccn2nc(COCCO)nc12` was tested, and the T/C [16] was 97 % of control, the T/C [17] was 94 % of control and the T/C [18] was 97 % of control. The T/C [8] was 113 % of control and the T/C (dose: 200.0 mg/kg/injection, schedule: Q01DX005 (ip), vehicle: saline) was 109 % of control.

With `Nc1nc(S)cc(=O)[nH]1` the T/C [4] was 91 % of control, the T/C [5] was 108 % of control and the T/C [6] was 94 % of control. For the same molecule, the T/C (dose: 400.0 mg/kg/injection, schedule: Q01DX009 (ip), vehicle: saline with Tween-80) was 99 % of control.

With `CCCC[N+](CCCC)(CCCC)CCCC.O=C([O-])[O-].O=C([O-])[O-].[Co+3].[NH-]CC[NH-]` the T/C (dose: 50.0 mg/kg/injection, schedule: Q01DX009 (ip), vehicle: suspension in saline) was 113 % of control and 123 % of control and the T/C (dose: 100.0 mg/kg/injection, schedule: Q01DX009 (ip), vehicle: suspension in saline) was 120 % of control.

For `CN(C)CCOCN1COCC1(C)C`, the T/C [7] was 123 % of control.

In the case of `Nc1nc(-c2ccccc2)c(Br)c(=O)[nH]1`, the T/C (dose: 100.0 mg/kg/injection, schedule: Q01DX005 (ip), vehicle: saline with Tween-80) is reported as 112 % of control, the T/C [19] is reported as 105 % of control and the T/C (dose: 400.0 mg/kg/injection, schedule: Q01DX005 (ip), vehicle: saline with Tween-80) is reported as 100 % of control.

With `CCCCCCCCCCCCCCOCC(O)CN(CCO)CCO` (stereo unspecified) the T/C (dose: 12.5 mg/kg/injection, schedule: Q01DX009 (ip), vehicle: saline) was 105 % of control, the T/C [7] was 105 % of control and the T/C [1] was 88 % of control and 98 % of control.

Source: PubChem BioAssay AID330 (DTP/NCI, 2004)
